Assay results from article PMC10227015, “From a drug repositioning to a structure-based drug design approach to tackle acute lymphoblastic leukemia” (Nature Communications, 2023).
Entries after “also recorded” stand apart in the source; their conditions may differ. Like-named read-outs stand apart in the source and are kept apart here.

What was measured:
dCK-C3S-S74E [1] = assay: Enzymatic assay (PK/LDH coupled), dC phosphorylation by dCK in the presence of ATP; format: biochemical, human
Procedure, shortened: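 His-purified dCK-C3S-S74E (100 nM, or 50 nM where indicated) phosphorylated 100 µM dC with 1 mM ATP in 50 mM HEPES pH 7.5, 5 mM MgCl2, 1 mM DTT, 100 mM KCl, coupled via PK/LDH/PEP/300 µM NADH. NADH fluorescence decrease (ex 337/em 460 nm) gave velocities normalized to drug-free control; IC50 by nonlinear regression, triplicates.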

dCK-C3S-S74E [2] = assay: Thermal shift assay (TSA); conditions: for ΔTm, dCK thermal stabilization (TSA): 5 μM protein, 50 μM compound; for THERMAL SHIFT ASSAY +Tm (°): mean ± SD; for ΔTm (º) (TSA): Figure 2a, mean
Source text: BL21 pRIL Escherichia coli cells were transformed with dCK-plasmids (dCK-C4S-S74E (for crystallization assays) and dCK-C3S-S74E (for TSA, enzymatic and ITC assays)). […] Protein dCK-C3S-S74E used for other assays contained only three mutated cysteines. The S74E mutation mimics the phosphorylated state of this serine, which favors the open conformation of the enzyme, making it competent for nucleoside binding[45] to evaluate the binding affinity with compounds.
For binding assays (TSA, ITC and crystallography) cells were re-suspended in 50 mM TRIS, pH 8, 500 mM NaCl, 30 mM imidazole and 10% glycerol buffer and one EDTA free anti-protease tablet was added (Roche). After sonication and centrifugation (30,000 × g), the supernatant was loaded on a 5 ml HisTrap FF column (GE healthcare) pre-equilibrated with resuspension buffer. Protein was then eluted by resuspension buffer containing 500 mM imidazole. Protein eluted fractions were mixed and concentrated. Protein was further purified by size exclusion chromatography (superdex 200 16/600, GE healthcare) in 20 mM HEPES, pH 7.5, and 200 mM NaCl before concentration to 30 mg/ml and storage at −80 °C.
Thermal shift assay (TSA) experiments were performed in 384-well PCR white plates in the assay buffer containing 20 mM HEPES, pH 7.5 and 200 mM NaCl. […] Plates were centrifuged at 200 × g for 2 min at 4 °C. […] Raw fluorescence data were treated, and the melting temperatures (Tm) were calculated using CFX Manager 3.1 software (Bio-Rad). ΔTm represents the difference in Tm between the protein in the presence of compound and the protein alone (both at 2% DMSO). Each experiment was performed at least twice (with technical triplicates) and data are presented as the mean ± SD.

CCRF-CEM cell line = assay: CCRF-CEM proliferation, compound alone (nonspecific toxicity); format: cell-based, human; conditions: for nonspecific cellular toxicity: CCRF-CEM, absence of dT + dC; for Cell proliferation of the CCRF-CEM cell line Mean (% prolif): 72 h
Procedure: The dCK cellular assay was set up to assess the ability to inhibit dCK activity in a cellular model. The model was developed with a T-cell acute lymphoblastic leukemia cell line (CCRF-CEM), because of its high dependence on the SP, thus on dCK activity. Cellular assays were performed to assess the inhibition of cell proliferation under two conditions: (i) in the presence of the compound alone to determine the nonspecific effect on cells, independent of dCK (nonspecific toxicity) and (ii) in the presence of an inhibitor of the DNP to determine the ability of compounds to inhibit dCK and decrease tumor proliferation (activity on dCK). The inhibitor of the DNP chosen for the experiments was thymidine (dT), a physiological inhibitor of ribonucleotide reductase which arrests cell proliferation in phase S. The dTTP produced via thymidine kinase from dT acts as a RNR inhibitor by an allosteric regulation of the R1 subunit. The addition of the nucleoside deoxycytidine (dC) in the medium allows the rescue of cell proliferation by passing only through the salvage pathway, mediated by dCK. dC needs to be added exogenously to mimic physiological concentrations because it is not present in the cell culture medium, on the contrary to mouse model, in which it is naturally present in the serum. Therefore, cell proliferation under these conditions (+dT +dC) is dCK dependent and it is possible to determine the IC50 of dCK inhibitors on the inhibition of cell proliferation. Results are expressed as % cell proliferation relative to the control with DMSO.
The amount of reduced dye formed by metabolically active cells was quantified by its fluorescence measured at 560 nm (excitation) and 590 nm (emission) in a microplate reader (CLARIOstar, BMG Labtech). A blank well without cells was used as a background control. Each experiment was performed at least three times (with technical triplicates) and data are presented as the mean ± SD.

[3] = Acute in vivo toxicity, unique IP injection; conditions: male, mouse, in vivo; Swiss mice, IP, unique injection; read-out: Maximum tolerated dose
Procedure: To evaluate the in vivo toxicity selected compounds were injected by intraperitoneal (IP) route to 7 weeks-old male Swiss mice (n = 2) at 10, 20, 40, 50, or 80 mg/kg by unique injection. […] Compounds were administered in their hydrochloride salt forms. Mice were then observed closely for the next one hour, then every hour for 8 h. Observations were continued for 72 h for signs of pain or toxicity such as change in the behavior and in the activity in the cage (decreased locomotion) or change in the appearance (curved back, eyes half-closed, bristle hair, hips hollowed out). In vivo toxicity of compound OR0642 at 40 and 80 mg/kg was also assessed in the NOD-SCID-IL2Rγc null (NSG) mice model for 2 weeks in the presence and absence of dT to confirm the safety of the compound. […]. Blood samples were collected and spun at 10,000 × g prior to collecting the plasma supernatants. All plasma samples were frozen at −80 °C before sample processing. 13 μl of each plasma sample was mixed with 33 μl of acetonitrile to precipitate proteins and extract the compound. Samples were vortexed for 5 min and then placed in an ultrasonic bath for 1 min. The precipitated proteins were sedimented by centrifugation (15,000 × g, 5 min, 16 °C). Supernatants were transferred to a microplate to be analyzed by LC–MS/MS. All samples were analyzed with a UHPLC coupled to a Shimadzu LC-MS 8030 triple quadrupole. The solutions of a standard range, prepared with plasma from untreated mice, were analyzed in the same series of injections.

[4] = presence of ATP, [dCK] = 100 nM, read-out: ENZYMATIC ASSAY IC50
[5] = presence of ATP, [dCK] = 50 nM (footnote A), read-out: ENZYMATIC ASSAY IC50

dCK-C3S-S74E, sequence (P27707 whole entry S74E, form open): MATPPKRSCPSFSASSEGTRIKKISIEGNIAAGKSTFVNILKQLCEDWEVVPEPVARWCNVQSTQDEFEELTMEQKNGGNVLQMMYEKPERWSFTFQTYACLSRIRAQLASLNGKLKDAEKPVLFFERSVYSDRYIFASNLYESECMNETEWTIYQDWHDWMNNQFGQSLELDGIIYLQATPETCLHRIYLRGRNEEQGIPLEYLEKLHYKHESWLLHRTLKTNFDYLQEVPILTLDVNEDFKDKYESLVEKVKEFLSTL

Compound | Enzymatic activity (ATP) Mean (% activity) (dCK-C3S-S74E [1]; 0.16 µM) [%] | Enzymatic activity (ATP) Mean (% activity) (dCK-C3S-S74E [1]; 0.31 µM) [%] | Enzymatic activity (ATP) Mean (% activity) (dCK-C3S-S74E [1]; 0.63 µM) [%] | Enzymatic activity (ATP) Mean (% activity) (dCK-C3S-S74E [1]; 1.25 µM) [%] | Enzymatic activity (ATP) Mean (% activity) (dCK-C3S-S74E [1]; 2.5 µM) [%] | Enzymatic activity (ATP) Mean (% activity) (dCK-C3S-S74E [1]; 5 µM) [%] | Enzymatic activity (ATP) Mean (% activity) (dCK-C3S-S74E [1]; 10 µM) [%] | Enzymatic activity (ATP) Mean (% activity) (dCK-C3S-S74E [1]; 20 µM) [%] | Enzymatic activity (ATP) Mean (% activity) (dCK-C3S-S74E [1]; 40 µM) [%] | IC50 (dCK-C3S-S74E [1]; [4]) [nM] | ΔTm, dCK thermal stabilization (TSA) (dCK-C3S-S74E [2]) [°C] | Thermal Shift Assay Mean (ΔTm (º)) (dCK-C3S-S74E [2]; Figure 2b) | THERMAL SHIFT ASSAY +Tm (°) (dCK-C3S-S74E [2]) | Enzymatic activity (ATP) Mean (% activity) (dCK-C3S-S74E [1]; 0.04 µM) [%] | Enzymatic activity (ATP) Mean (% activity) (dCK-C3S-S74E [1]; 0.08 µM) [%] | Enzymatic activity (ATP) Mean (% activity) (dCK-C3S-S74E [1]; 0.02 µM) [%] | MTD at 72 h [3] [mg/kg] | also measured
CCCN(c1nc(-c2nc(N)cc(N)n2)cs1)c1cc(-c2ccc(CCN3CCN(C)CC3)nc2)ccc1C [OR0602] | 23.6 | 0.751 | 4.3 | 6.6 | 6.1 | 4.8 |  |  |  |  | 19.5 | 19.7 º | 19.5 ± 0.5 | 81.1 | 60.0 | 88.7 | 10 | IC50 (dCK-C3S-S74E [1]; ATP, technical limit of the assay, read-out: enzymatic inhibition IC50): 77 nM; nonspecific cellular toxicity (CCRF-CEM cell line): without an increase in nonspecific cellular toxicity
CCCN(c1nc(-c2nc(N)cc(N)n2)cs1)c1cc(-c2ccc(S(=O)(=O)N3CCN(C)CC3)c(OC)c2)ccc1C [OR0635] | 15.4 | 4.7 | 4.6 | 2.0 | 1.6 |  |  |  |  |  | 20.4 | 20.7 º | 20.40 ± 0.9 | 82.4 | 61.6 | 74.5 | > 40 | Enzymatic activity (ATP) Mean (% activity) (dCK-C3S-S74E [1]; 0.01 µM): 71.4%; IC50 (dCK-C3S-S74E [1]; [5]): 66 ± 11 nM; ΔTm (º) (TSA) (dCK-C3S-S74E [2]): 20.4 º
CCCN(c1nc(-c2nc(N)cc(N)n2)cs1)c1cc(-c2ccc(S(=O)(=O)N3CCN(C)CC3)cc2C(F)(F)F)ccc1C [OR0642] | 43.5 | 8.3 | 4.2 | 2.4 | -0.5 |  |  |  |  |  | 22.2 | 22.2 º | 22.2 ± 0.9 | 65.5 | 63.0 | 80.5 | > 80 | Enzymatic activity (ATP) Mean (% activity) (dCK-C3S-S74E [1]; 0.01 µM): 79.2%; IC50 (dCK-C3S-S74E [1]; [5]): 106 ± 30 nM; nonspecific cellular toxicity (CCRF-CEM cell line): lack of non-specific toxicity; also recorded: absence of nonspecific toxicity; ΔTm (º) (TSA) (dCK-C3S-S74E [2]): 22.23 º; improved dCK thermal stability (dCK-C3S-S74E [2]; compared to dCKi1): 7.9 °C; improved dCK thermal stability (dCK-C3S-S74E [2]; compared to masitinib): 15 °C
Cc1ccc(NC(=O)c2ccc(CN3CCN(C)CC3)cc2)cc1Nc1nc(-c2nccc(N)n2)cs1 [dCKi1] | 93.7 | 94.8 | 91.7 | 77.3 | 51.8 | 30.3 | 11.5 | 3.9 | 3.1 | 2660 ± 608 | 14.3 |  | 14.3 ± 0.4 |  |  |  |  | Cell proliferation of the CCRF-CEM cell line Mean (% prolif) (CCRF-CEM cell line; compound 10 µM alone): 76.3%; Thermal Shift Assay Mean (ΔTm (º)) (dCK-C3S-S74E [2]; Figure 1b): 14.3 º
Cc1ccc(NC(=O)c2ccc(CN3CCN(C)CC3)cc2)cc1Nc1nc(-c2nc(N)cc(N)n2)cs1 [dCKi2, N-(3-((4-(4,6-diaminopyrimidin-2-yl)thiazol-2-yl)amino)-4-methylphenyl)-4-((4-methylpiperazin-1-yl)methyl)benzamide] | 97.2 | 85.8 | 62.1 | 35.4 | 16.5 | 3.9 | 3.9 | 2.6 | 5.2 | 903 ± 37 | 17.3 |  | 17.3 ± 0.2 |  |  |  |  | Cell proliferation of the CCRF-CEM cell line Mean (% prolif) (CCRF-CEM cell line; compound 10 µM alone): 78.4%; Thermal Shift Assay Mean (ΔTm (º)) (dCK-C3S-S74E [2]; Figure 1b): 17.3 º
Cc1cn([C@H]2C[C@H](O)[C@@H](CO)O2)c(=O)[nH]c1=O [dT, thymidine] |  |  |  |  |  |  |  |  |  |  |  |  |  |  |  |  |  | Cell proliferation of the CCRF-CEM cell line Mean (% prolif) (CCRF-CEM cell line; dT 111 µM alone): 33.2%

The next lines start with results.

Enzymatic activity (ATP) Mean (% activity) (dCK-C3S-S74E [1]; 0.16 µM) [%] | Enzymatic activity (ATP) Mean (% activity) (dCK-C3S-S74E [1]; 0.31 µM) [%] | Enzymatic activity (ATP) Mean (% activity) (dCK-C3S-S74E [1]; 0.63 µM) [%] | Enzymatic activity (ATP) Mean (% activity) (dCK-C3S-S74E [1]; 1.25 µM) [%] | Enzymatic activity (ATP) Mean (% activity) (dCK-C3S-S74E [1]; 2.5 µM) [%] | Enzymatic activity (ATP) Mean (% activity) (dCK-C3S-S74E [1]; 5 µM) [%] | Enzymatic activity (ATP) Mean (% activity) (dCK-C3S-S74E [1]; 10 µM) [%] | Enzymatic activity (ATP) Mean (% activity) (dCK-C3S-S74E [1]; 20 µM) [%] | Enzymatic activity (ATP) Mean (% activity) (dCK-C3S-S74E [1]; 40 µM) [%] | IC50 (dCK-C3S-S74E [1]; [4]) [nM] | ΔTm, dCK thermal stabilization (TSA) (dCK-C3S-S74E [2]) [°C] | Thermal Shift Assay Mean (ΔTm (º)) (dCK-C3S-S74E [2]; Figure 2b) | THERMAL SHIFT ASSAY +Tm (°) (dCK-C3S-S74E [2]) | Compound | Enzymatic activity (ATP) Mean (% activity) (dCK-C3S-S74E [1]; 0.04 µM) [%] | Enzymatic activity (ATP) Mean (% activity) (dCK-C3S-S74E [1]; 0.08 µM) [%] | Enzymatic activity (ATP) Mean (% activity) (dCK-C3S-S74E [1]; 0.02 µM) [%] | MTD at 72 h [3] [mg/kg] | also measured
86.8 | 81.3 | 62.9 | 44.6 | 27.8 | 11.8 | 11.9 | 7.8 | 5.0 | 1033 ± 10 | 16.7 | 16.7 º | 16.7 ± 0.3 | Cc1ccc(-c2ccc(CN3CCN(C)CC3)cc2)cc1Nc1nc(-c2nccc(N)n2)cs1 [OR0274] |  |  |  |  | 
87.3 | 73.6 | 56.4 | 34.0 | 19.3 | 12.3 | 11.6 | 8.1 | 4.4 | 826 ± 78 | 17.8 | 17.8 º | 17.9 ± 0.3 | Cc1ccc(-c2ccc(CCN3CCN(C)CC3)cc2)cc1Nc1nc(-c2nccc(N)n2)cs1 [OR0325] |  |  |  |  | 
85.5 | 56.9 | 22.9 | 5.3 | -9.9 | -2.1 | -7.8 |  |  | 315 ± 50 | 18.4 | 18.4 º | 18.4 ± 0.2 | CCCN(c1nc(-c2nccc(N)n2)cs1)c1cc(-c2ccc(CCN3CCN(C)CC3)cc2)ccc1C [OR0345] | 96.0 | 95.1 |  |  | 
43.5 | 11.4 | 0.0484 | 1.1 | -0.9 | -8.7 | -3.1 |  |  | 121 ± 21 | 20 | 20.0 º | 20.0 ± 0.6 | CCCN(c1nc(-c2nc(N)cc(N)n2)cs1)c1cc(-c2ccc(CCN3CCN(C)CC3)cc2)ccc1C [OR0600] | 92.1 | 78.6 |  |  | 
